Target: Probable nicotinate-nucleotide adenylyltransferase (Staphylococcus aureus (strain N315)) (UniProt P65502)
Assay: inhibitors of S. aureus NadD, dose response, biochemical, colorimetric, set 2 (AID 651709)
Details: purified S. aureus NadD, colorimetric enzyme assay

Sequence of Probable nicotinate-nucleotide adenylyltransferase (Staphylococcus aureus (strain N315)) (P65502 whole entry, looked up): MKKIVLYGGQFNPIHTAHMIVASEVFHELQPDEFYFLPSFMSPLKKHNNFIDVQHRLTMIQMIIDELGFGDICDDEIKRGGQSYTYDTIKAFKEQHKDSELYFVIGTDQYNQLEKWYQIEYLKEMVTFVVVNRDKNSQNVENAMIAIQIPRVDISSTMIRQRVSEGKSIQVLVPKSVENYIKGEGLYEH

**Q.** With `C[c-]1[c-](C)[c-](C)[c-](C)[c-]1C.[Fe].c1cc2nccc(N3CCCC3)[c-]2c1` (stereo unspecified) as the compound, how does the IC50 read?
**A.** 50 µM

Reference: PubChem BioAssay AID651709 (Sanford-Burnham Center for Chemical Genomics, 2012)
